Counter-ions that a name gives are not always drawn.
Tests used:
[1] = biological target: T1, human JAK1 (a.a. 837-1142) (Homo sapiens, UniProt P23458); experiment: In vitro JAK kinase assay (HTRF, phosphorylation of a biotinylated peptide), JAK1; assay type: biochemical
T1 construct: human JAK1 (a.a. 837-1142); His tag (N); made in house; host or cells: insect cells (baculovirus)
Procedure, shortened: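 His-tagged catalytic domains (JAK1 a.a. 837-1142, JAK2 a.a. 828-1132) from insect cells phosphorylate 500 nM biotinylated peptide in 50 mM Tris pH 7.8, 100 mM NaCl, 5 mM DTT; ATP at Km (90 μM JAK1, 30 μM JAK2) or 1 mM, as indicated. 1 h at RT; EDTA stop, HTRF readout; IC50s.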

Jak2 (a.a. 828-1132) = biological target: T2, Jak2 (a.a. 828-1132) (Homo sapiens, UniProt O60674); experiment: In vitro JAK kinase assay (HTRF, phosphorylation of a biotinylated peptide), JAK2, reported as JAK2/JAK1 ratio; assay type: biochemical
T2 construct: Jak2 (a.a. 828-1132); His tag (N); made in house; host or cells: insect cells (baculovirus)
T2 sequence (O60674 828-1132): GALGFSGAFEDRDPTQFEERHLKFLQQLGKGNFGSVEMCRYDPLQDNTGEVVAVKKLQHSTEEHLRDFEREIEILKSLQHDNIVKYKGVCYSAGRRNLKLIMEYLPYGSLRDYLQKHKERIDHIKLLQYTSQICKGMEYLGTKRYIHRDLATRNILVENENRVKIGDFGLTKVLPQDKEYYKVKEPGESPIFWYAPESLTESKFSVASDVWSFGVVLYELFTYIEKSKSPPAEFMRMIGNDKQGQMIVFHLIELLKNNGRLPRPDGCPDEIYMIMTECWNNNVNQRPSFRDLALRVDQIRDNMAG

[2] = Assay Conditions Km (ATP 90 μM for Jak1)
[3] = Assay Conditions Km (ATP 90 μM for Jak1, 30 μM for Jak2)

T1 sequence (P23458 849-1154): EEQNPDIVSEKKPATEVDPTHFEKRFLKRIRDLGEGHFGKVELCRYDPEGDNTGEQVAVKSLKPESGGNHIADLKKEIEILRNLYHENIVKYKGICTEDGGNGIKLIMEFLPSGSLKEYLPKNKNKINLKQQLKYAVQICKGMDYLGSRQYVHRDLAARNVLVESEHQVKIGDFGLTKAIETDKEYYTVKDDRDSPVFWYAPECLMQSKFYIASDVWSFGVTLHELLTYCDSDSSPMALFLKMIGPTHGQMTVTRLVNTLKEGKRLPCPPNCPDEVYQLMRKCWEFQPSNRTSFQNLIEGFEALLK

IC50 ([1]; Assay Conditions 1 mM ATP) [nM]	JAK2/JAK1 IC50 ratio (Jak2 (a.a. 828-1132); Assay Conditions 1 mM ATP)	IC50 [1, 2] [nM]	JAK2/JAK1 IC50 ratio (Jak2 (a.a. 828-1132); [3])	Compound
< 50	>6.9	–	–	CCc1cnc(N2CC[C@H]([C@H](CC#N)n3cc(-c4ncnc5[nH]ccc45)cn3)C2)c(C#N)n1 [Example 144, 3-((3S)-3-{(1S)-2-cyano-1-[4-(7H-pyrrolo[2,3-d]pyrimidin-4-yl)-1H-pyrazol-1-yl]ethyl}pyrrolidin-1-yl)-6-ethylpyrazine-2-carbonitrile trifluoroacetate]
< 50	7.1	–	–	N#CCC(C1CCN(c2nc3c(O)cccc3o2)C1)n1cc(-c2ncnc3[nH]ccc23)cn1 (single isomer, unassigned) [Example 165, 3-[1-(4-hydroxy-1,3-benzoxazol-2-yl)pyrrolidin-3-yl]-3-[4-(7H-pyrrolo[2,3-d]pyrimidin-4-yl)-1H-pyrazol-1-yl]propanenitrile]
< 50	>10	–	–	N#CC[C@@H]([C@H]1CCN(c2cccc(C(F)(F)F)c2C#N)C1)n1cc(-c2ncnc3[nH]ccc23)cn1 [Example 56, 2-((3S)-3-{(1S)-2-cyano-1-[4-(7H-pyrrolo[2,3-d]pyrimidin-4-yl)-1H-pyrazol-1-yl]ethyl}pyrrolidin-1-yl)-6-(trifluoromethyl)benzonitrile trifluoroacetate salt]
< 50	39.1	–	–	N#CC[C@@H]([C@H]1CCN(c2scc(Br)c2C#N)C1)n1cc(-c2ncnc3[nH]ccc23)cn1 [Example 77, 4-bromo-2-((3S)-3-{(1S)-2-cyano-1-[4-(7H-pyrrolo[2,3-d]pyrimidin-4-yl)-1H-pyrazol-1-yl]ethyl}pyrrolidin-1-yl)thiophene-3-carbonitrile]
< 50	40.0	–	–	N#CCC(C1CCN(c2scc(C#N)c2C#N)C1)n1ccc(-c2ncnc3[nH]ccc23)c1 (single isomer, unassigned) [81 enantiomer 1]
50 to 100	5.3	–	–	N#CCC(C1CCN(c2ccc3c(n2)OCC3)C1)n1cc(-c2ncnc3[nH]ccc23)cn1 (single isomer, unassigned) [Example 155, 3-[1-(2,3-dihydrofuro[2,3-b]pyridin-6-yl)pyrrolidin-3-yl]-3-[4-(7H-pyrrolo[2,3-d]pyrimidin-4-yl)-1H-pyrazol-1-yl]propanenitrile]
< 50	2.3	–	–	CSc1nccc(N2CCC(C(CC#N)n3cc(-c4ncnc5[nH]ccc45)cn3)C2)n1 (single isomer, unassigned) [Example 23, 3-{1-[2-(methylthio)pyrimidin-4-yl]pyrrolidin-3-yl}-3-[4-(7H-pyrrolo[2,3-d]pyrimidin-4-yl)-1H-pyrazol-1-yl]propanenitrile]
< 50	11.5	–	–	N#CC[C@@H]([C@H]1CCN(c2ncncc2C#N)C1)n1cc(-c2ncnc3[nH]ccc23)cn1 [Example 84, 4-((S)-3-((S)-1-(4-(7H-pyrrolo[2,3-d]pyrimidin-4-yl)-1H-pyrazol-1-yl)-2-cyanoethyl)pyrrolidin-1-yl)pyrimidine-5-carbonitrile trifluoroacetate]
< 50	6.0	–	–	N#Cc1nnccc1N1CC[C@H](C(CF)n2cc(-c3ncnc4[nH]ccc34)cn2)C1 (single isomer, unassigned) [Example 116]
< 50	9.4	–	–	N#CC[C@@H]([C@H]1CCN(c2c(F)nc(F)c(F)c2C#N)C1)n1cc(-c2ncnc3[nH]ccc23)cn1 [Example 65, 3-((3S)-3-{(1S)-2-cyano-1-[4-(7H-pyrrolo[2,3-d]pyrimidin-4-yl)-1H-pyrazol-1-yl]ethyl}pyrrolidin-1-yl)-2,5,6-trifluoroisonicotinonitrile trifluoroacetate salt]
< 50	11.1	–	–	N#CCC(C1CCN(c2ncc3c(c2C#N)SCC3)C1)n1ccc(-c2ncnc3[nH]ccc23)c1 (single isomer, unassigned) [Example 174-2, 6-(3-{2-cyano-1-[3-(7H-pyrrolo[2,3-d]pyrimidin-4-yl)-1H-pyrrol-1-yl]ethyl}pyrrolidin-1-yl)-2,3-dihydrothieno[3,2-c]pyridine-7-carbonitrile]
< 50	>10.5	–	–	N#CC[C@@H]([C@H]1CCN(c2ccnc(C#N)c2C#N)C1)n1cc(-c2ncnc3[nH]ccc23)cn1 [Example 124, 4-((3S)-3-{(1S)-2-cyano-1-[4-(7H-pyrrolo[2,3-d]pyrimidin-4-yl)-1H-pyrazol-1-yl]ethyl}pyrrolidin-1-yl)pyridine-2,3-dicarbonitrile trifluoroacetate]
< 50	4.6	–	–	N#CC[C@@H]([C@H]1CCN(c2cccc(F)c2C#N)C1)n1cc(-c2ncnc3[nH]ccc23)cn1 [Example 54, 2-((3S)-3-{(1S)-2-cyano-1-[4-(7H-pyrrolo[2,3-d]pyrimidin-4-yl)-1H pyrazol-1-yl]ethyl}pyrrolidin-1-yl) 6-fluorobenzonitrile trifluoroacetate salt]
< 50	132.5	–	–	N#CC[C@@H]([C@H]1CCN(c2ccc(Cl)nc2Cl)C1)n1cc(-c2ncnc3[nH]ccc23)cn1 [Example 125, (3S)-3-[(3S)-1-(2,6-dichloropyridin-3-yl)pyrrolidin-3-yl]-3-[4-(7H-pyrrolo[2,3-d]pyrimidin-4-yl)-1H-pyrazol-1-yl]propanenitrile trifluoroacetate]
< 50	11	–	–	CS(=O)(=O)c1cccc(N2CCC(C(CC#N)n3cc(-c4ncnc5[nH]ccc45)cn3)C2)c1C#N (racemic) [Example 41, ±2-(3-{2-cyano-1-[4-(7H-pyrrolo[2,3-d]pyrimidin-4-yl)-1H-pyrazol-1-yl]ethyl}pyrrolidin-1-yl)-6-(methylsulfonyl)benzonitrile]
–	–	< 50	3.7	N#CCC(C1CCN(c2nccc(Cl)n2)C1)n1cc(-c2ncnc3[nH]ccc23)cn1 (single isomer, unassigned) [Example 4b, 3-[1-(4-chloropyrimidin-2-yl)pyrrolidin-3-yl]-3-[4-(7H-pyrrolo[2,3-d]pyrimidin-4-yl)-1H-pyrazol-1-yl]propanenitrile]
< 50	1.7	–	–	N#CCC(C1CCN(c2ccc3cc[nH]c3n2)C1)n1cc(-c2ncnc3[nH]ccc23)cn1 (stereo not shown) [Example 73, 3-(1-(1H-pyrrolo[2,3-b]pyridin-6-yl)pyrrolidin-3-yl)-3-(4-(7H-pyrrolo[2,3-d]pyrimidin-4-yl)-1H-pyrazol-1-yl)propanenitrile trifluoroacetate]
< 50	>7.4	–	–	Cc1ccnc(N2CC[C@H]([C@H](CC#N)n3cc(-c4ncnc5[nH]ccc45)cn3)C2)c1C#N [Example 100, 2-((S)-3-((S)-1-(4-(7H-pyrrolo[2,3-d]pyrimidin-4-yl)-1H-pyrazol-1-yl)-2-cyanoethyl)pyrrolidin-1-yl)-4-methylnicotinonitrile trifluoroacetate]
< 50	53.3	–	–	N#CCC(C1CCN(c2ncc3ccsc3c2C#N)C1)n1ccc(-c2ncnc3[nH]ccc23)c1 (racemic) [Example 176-rac, 6-(3-{2-cyano-1-[3-(7H-pyrrolo[2,3-d]pyrimidin-4-yl)-1H-pyrrol-1-yl]ethyl}pyrrolidin-1-yl)thieno[3,2-c]pyridine-7-carbonitrile]
< 50	20.0	–	–	N#CCC(C1CCN(c2ncc3c(c2C#N)S(=O)(=O)CC3)C1)n1cc(-c2ncnc3[nH]ccc23)cn1 (single isomer, unassigned) [Example 172, 6-(3-{2-cyano-1-[4-(7H-pyrrolo[2,3-d]pyrimidin-4-yl)-1H-pyrazol-1-yl]ethyl}pyrrolidin-1-yl)-2,3-dihydrothieno[3,2-c]pyridine-7-carbonitrile 1,1-dioxide]
< 50	14	–	–	CS(=O)(=O)c1cc(N2CCC(C(CC#N)n3cc(-c4ncnc5[nH]ccc45)cn3)C2)ccn1 (single isomer, unassigned) [Example 27, 3-{1-[2-(methylsulfonyl)pyridin-4-yl]pyrrolidin-3-yl}-3-[4-(7H-pyrrolo[2,3-d]pyrimidin-4-yl)-1H-pyrazol-1-yl]propanenitrile]
–	–	< 50	8.5	N#CCC(C1CCN(c2ccnc(Cl)n2)C1)n1cc(-c2ncnc3[nH]ccc23)cn1 (single isomer, unassigned) [3, Step 2b]
< 50	5.9	–	–	N#Cc1ncsc1N1CC[C@H](C(CF)n2cc(-c3ncnc4[nH]ccc34)cn2)C1 (stereo partly drawn) [Example 126, 5-((3S)-3-{2-fluoro-1-[4-(7H-pyrrolo[2,3-d]pyrimidin-4-yl)-1H-pyrazol-1-yl]ethyl}pyrrolidin-1-yl)-1,3-thiazole-4-carbonitrile trifluoroacetate]
–	–	< 50	3.7	N#CCC(C1CCN(c2nc3cccnc3o2)C1)n1ccc(-c2ncnc3[nH]ccc23)c1 (single isomer, unassigned) [32, Step 2a, enantiomer 1]
< 50	3.7	–	–	N#CCC(C1CCN(c2ncc3cccc(F)c3n2)C1)n1cc(-c2ncnc3[nH]ccc23)cn1 (stereo not shown) [Example 46, 3-[1-(8-fluoroquinazolin-2-yl)pyrrolidin-3-yl]-3-[4-(7H-pyrrolo[2,3-d]pyrimidin-4-yl)-1H-pyrazol-1-yl]propanenitrile]
< 50	>11.8	–	–	N#CCC(C1CCN(c2ccnc(C(=O)Nc3ccccc3)c2)C1)n1cc(-c2ncnc3[nH]ccc23)cn1 (single isomer, unassigned) [Example 154, 4-(3-{2-cyano-1-[4-(7H-pyrrolo[2,3-d]pyrimidin-4-yl)-1H-pyrazol-1-yl]ethyl}pyrrolidin-1-yl)-N-phenylpyridine-2-carboxamide]

From patent US8716303B2, “N-(hetero)aryl-pyrrolidine derivatives of pyrazol-4-yl-pyrrolo[2,3-d]pyrimidines and pyrrol-3-yl-pyrrolo[2,3-d]pyrimidines as janus kinase inhibitors” (Incyte Corporation, priority 2009, dated 2014)
